Laboratory results reported in US7034035B2, “Fungicidal mono-, bi-, and tri-cycloheteroalkyl amides and their compositions, methods of use and preparation” (priority 1999, dated 2006).
Read-outs that look alike come from different tables or passages of the source.

How the values were obtained:
[1] = test system: Rhizoctonia solani (RHIZSO); test: microbe, parasite or virus in culture; assay type: cell-based
Septoria tritici—SEPTTR = test: Leaf Blotch of Wheat, in vivo whole plant, 24 Hour Protectant; settings: for pest or weed control at 100 ppm: Zymoseptoria tritici, read-out: SEPTTR in vivo 1 Day Protectant
Ustilago maydis (USTIMA) = test: microbe, parasite or virus in culture; assay type: cell-based
[2] = test system: Phytophthora infestans—PHYTIN; test: whole plant or invertebrate; assay type: in vivo; settings: for PHYTIN in vivo 1 Day Protectant: tomato (cultivar Rutgers), sprayed at 100 ppm, inoculated after 24 hours, control of fungal infection vs untreated plants
[3] = test system: Puccinia recondita—PUCCRT; test: Brown Rust of Wheat, in vivo whole plant, 24 Hour Protectant; settings: wheat (cultivar Yuma), sprayed at 100 ppm, inoculated after 24 hours; control of fungal infection vs untreated plants
[4] = test system: Mycosphaerella graminicola (Septoria tritici—SEPTTR); test: Inhibition of in vitro fungal growth, SEPTTR; assay type: cell-based
Erysiphe graminis—ERYSGT = test: Powdery Mildew of Wheat, in vivo whole plant, 24 Hour Protectant; settings: wheat (cultivar Monon), sprayed at 100 ppm, inoculated after 24 hours; control of fungal infection vs untreated plants
[5] = test system: Stagonospora nodorum (Leptosphaeria nodorum—LEPTNO); test: Inhibition of in vitro fungal growth, LEPTNO; assay type: cell-based
[6] = test system: Leptosphaeria nodorum—LEPTNO; test: Glume Blotch of Wheat, in vivo whole plant, 24 Hour Protectant; settings: wheat (cultivar Yuma), sprayed at 100 ppm, inoculated after 24 hours; control of fungal infection vs untreated plants
[7] = test system: Phytophthora infestans (PHYTIN); test: microbe, parasite or virus in culture; assay type: cell-based; settings: in vitro fungal growth
[8] = test system: Magnaporthe grisea (Pyricularia oryzae—PYRIOR); test: microbe, parasite or virus in culture; assay type: cell-based; settings: in vitro fungal growth
[9] = wheat (cultivar Yuma), sprayed at 100 ppm, inoculated after 24 hours, control of fungal infection vs untreated plants

COc1ccnc(C(=O)NC2CCN(Cc3ccccc3)CC2)c1O.O=C(O)/C=C\C(=O)O [Compound 305]
RHIZSO in vitro Growth Inhibition [1]: − (key: +: at least 80% growth inhibition; −: less than 80% growth inhibition)
SEPTTR in vivo 1 Day Protectant (Septoria tritici—SEPTTR; [9]): − (<25% control of fungal infection)
USTIMA in vitro Growth Inhibition (Ustilago maydis (USTIMA)): − (key: +: at least 80% growth inhibition; −: less than 80% growth inhibition)
pest or weed control at 100 ppm ([2]; Phytophthora, in Solanum lycopersicum, 24 h, read-out: PHYTIN in vivo 1 Day Protectant): 75 to 100%
PUCCRT in vivo 1 Day Protectant [3]: − (<25% control of fungal infection)
SEPTTR in vitro Growth Inhibition [4]: − (key: +: at least 80% growth inhibition; −: less than 80% growth inhibition)
ERYSGT in vivo 1 Day Protectant (Erysiphe graminis—ERYSGT): − (<25% control of fungal infection)
LEPTNO in vitro Growth Inhibition [5]: − (key: +: at least 80% growth inhibition; −: less than 80% growth inhibition)
LEPTNO in vivo 1 Day Protectant [6]: − (<25% control of fungal infection)

Br.COc1ccnc(C(=O)NC2C[C@@H](Cc3ccccc3)O[C@@H](C)C2)c1O (stereo partly shown) [Compound 311]
RHIZSO in vitro Growth Inhibition [1]: − (key: +: at least 80% growth inhibition; −: less than 80% growth inhibition)
pest or weed control at 100 ppm (Septoria tritici—SEPTTR; 24 h): 75 to 100%
USTIMA in vitro Growth Inhibition (Ustilago maydis (USTIMA)): − (key: +: at least 80% growth inhibition; −: less than 80% growth inhibition)
PUCCRT in vivo 1 Day Protectant [3]: + (25-74% control of fungal infection)
SEPTTR in vitro Growth Inhibition [4]: − (key: +: at least 80% growth inhibition; −: less than 80% growth inhibition)
ERYSGT in vivo 1 Day Protectant (Erysiphe graminis—ERYSGT): − (<25% control of fungal infection)
LEPTNO in vitro Growth Inhibition [5]: − (key: +: at least 80% growth inhibition; −: less than 80% growth inhibition)
LEPTNO in vivo 1 Day Protectant [6]: + (25-74% control of fungal infection)

COc1ccnc(C(=O)N[C@@H]2C[C@@H](O[Si](C)(C)C(C)(C)C)O[C@@H](C)[C@@H]2OCc2ccccc2)c1O [Compound 327]
RHIZSO in vitro Growth Inhibition [1]: − (key: +: at least 80% growth inhibition; −: less than 80% growth inhibition)
pest or weed control at 100 ppm (Septoria tritici—SEPTTR; [9]): 75 to 100%
USTIMA in vitro Growth Inhibition (Ustilago maydis (USTIMA)): − (key: +: at least 80% growth inhibition; −: less than 80% growth inhibition)
SEPTTR in vitro Growth Inhibition [4]: − (key: +: at least 80% growth inhibition; −: less than 80% growth inhibition)
LEPTNO in vitro Growth Inhibition [5]: − (key: +: at least 80% growth inhibition; −: less than 80% growth inhibition)

O=C(N[C@H]1CC2CC1[C@@H]1CCC[C@H]21)c1ncccc1O (stereo partly shown) [Compound 206]
RHIZSO in vitro Growth Inhibition [1]: + (key: +: at least 80% growth inhibition; −: less than 80% growth inhibition)
SEPTTR in vivo 1 Day Protectant (Septoria tritici—SEPTTR; [9]): − (<25% control of fungal infection)
USTIMA in vitro Growth Inhibition (Ustilago maydis (USTIMA)): − (key: +: at least 80% growth inhibition; −: less than 80% growth inhibition)
PHYTIN in vivo 1 Day Protectant [2]: − (<25% control of fungal infection)
PUCCRT in vivo 1 Day Protectant [3]: − (<25% control of fungal infection)
SEPTTR in vitro Growth Inhibition [4]: + (key: +: at least 80% growth inhibition; −: less than 80% growth inhibition)
ERYSGT in vivo 1 Day Protectant (Erysiphe graminis—ERYSGT): − (<25% control of fungal infection)
LEPTNO in vitro Growth Inhibition [5]: + (key: +: at least 80% growth inhibition; −: less than 80% growth inhibition)
PHYTIN in vitro Growth Inhibition [7]: − (less than 80% growth inhibition)
PYRIOR in vitro Growth Inhibition [8]: + (at least 80% growth inhibition)
LEPTNO in vivo 1 Day Protectant [6]: − (<25% control of fungal infection)

C[C@H]1C2CC([C@H]3CCC[C@@H]23)[C@@H]1NC(=O)c1ncccc1O (stereo partly shown) [Compound 207]
RHIZSO in vitro Growth Inhibition [1]: − (key: +: at least 80% growth inhibition; −: less than 80% growth inhibition)
SEPTTR in vivo 1 Day Protectant (Septoria tritici—SEPTTR; [9]): − (<25% control of fungal infection)
USTIMA in vitro Growth Inhibition (Ustilago maydis (USTIMA)): − (key: +: at least 80% growth inhibition; −: less than 80% growth inhibition)
PHYTIN in vivo 1 Day Protectant [2]: − (<25% control of fungal infection)
PUCCRT in vivo 1 Day Protectant [3]: − (<25% control of fungal infection)
SEPTTR in vitro Growth Inhibition [4]: + (key: +: at least 80% growth inhibition; −: less than 80% growth inhibition)
ERYSGT in vivo 1 Day Protectant (Erysiphe graminis—ERYSGT): − (<25% control of fungal infection)
LEPTNO in vitro Growth Inhibition [5]: + (key: +: at least 80% growth inhibition; −: less than 80% growth inhibition)
PHYTIN in vitro Growth Inhibition [7]: − (less than 80% growth inhibition)
PYRIOR in vitro Growth Inhibition [8]: + (at least 80% growth inhibition)
LEPTNO in vivo 1 Day Protectant [6]: − (<25% control of fungal infection)

COc1ccnc(C(=O)N[C@@H]2C[C@@H](O[Si](C)(C)C(C)(C)C)O[C@@H](C)[C@@H]2OC)c1O [Compound 326]
RHIZSO in vitro Growth Inhibition [1]: − (key: +: at least 80% growth inhibition; −: less than 80% growth inhibition)
pest or weed control at 100 ppm (Septoria tritici—SEPTTR; [9]): 75 to 100%
USTIMA in vitro Growth Inhibition (Ustilago maydis (USTIMA)): − (key: +: at least 80% growth inhibition; −: less than 80% growth inhibition)
SEPTTR in vitro Growth Inhibition [4]: − (key: +: at least 80% growth inhibition; −: less than 80% growth inhibition)
LEPTNO in vitro Growth Inhibition [5]: − (key: +: at least 80% growth inhibition; −: less than 80% growth inhibition)
